Where two headings read alike, the source gives them in different places. A value given as a limit tells only on which side of the number the result lay.

The target in this assay is T1, human GPR68 (Homo sapiens, UniProt Q15743).
T1 construct: encoding full-length human GPR68 (uniprot ID: Q15743); expressed in transfected cells; host or cells: HEK293T
Description: GPR68 Biochemical Assay (Promega GloSensor cAMP assay, GPR68 antagonism). It counts as cell-based. Particulars: 15 min. In outline: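 Readout is GloSensor cAMP luminescence after 15 min at room temperature, normalised between pH 5.5 stimulation and pH 8.0 minimum controls; IC50 fitted sigmoidally. Test compounds, up to 50 μM final (9-point half-log, 0.5% DMSO), were co-added with pH 5.5 buffer to HEK293T cells transiently expressing full-length human GPR68 plus GloSensor.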

Setting [1] is: HEK293T cells transiently expressing hGPR68, antagonism of pH 5.5 stimulated cAMP, read-out: hGPR68 IC50.

T1 sequence (Q15743 whole entry): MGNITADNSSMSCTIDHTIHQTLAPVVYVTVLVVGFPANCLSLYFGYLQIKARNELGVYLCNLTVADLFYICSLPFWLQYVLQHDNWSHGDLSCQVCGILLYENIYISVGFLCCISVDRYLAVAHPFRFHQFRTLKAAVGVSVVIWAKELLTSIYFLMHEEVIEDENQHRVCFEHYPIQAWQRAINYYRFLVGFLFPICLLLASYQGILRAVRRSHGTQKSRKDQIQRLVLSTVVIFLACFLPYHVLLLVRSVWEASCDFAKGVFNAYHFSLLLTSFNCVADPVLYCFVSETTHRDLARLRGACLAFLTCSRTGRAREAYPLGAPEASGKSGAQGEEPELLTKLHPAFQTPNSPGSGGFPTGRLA

In the case of `COCc1nn2c(C(=O)NCC3CC3(C)C)ccnc2c1C(N)=O` (stereo not shown) [Compound 77, N7-[(2,2-dimethylcyclopropyl)methyl]-2-(methoxymethyl)pyrazolo[1,5-a]pyrimidine-3,7-dicarboxamide], the IC50 under setting [1] was 500 to 5000 nM.
On the same count and under the same terms, for `COCc1nn2c(C(=O)NC3COc4ccccc4C3)ccnc2c1C(N)=O` (stereo not shown) [Compound 78, N7-chroman-3-yl-2-(methoxymethyl)pyrazolo[1,5-a]pyrimidine-3,7-dicarboxamide] the value was 50 to 500 nM; for `COCc1nn2c(C(=O)N[C@H]3CCc4ccccc4C3)ccnc2c1C(N)=O` [Compound 79, 2-(methoxymethyl)-N7-[(2S)-tetralin-2-yl]pyrazolo[1,5-a]pyrimidine-3,7-dicarboxamide], below 50 nM; for `COCc1nn2c(C(=O)NC3CCC(F)(F)CC3)ccnc2c1C(N)=O` [Compound 80, N7-(4,4-difluorocyclohexyl)-2-(methoxymethyl)pyrazolo[1,5-a]pyrimidine-3,7-dicarboxamide], below 50 nM.
On the same count and under the same terms, for `COCc1nn2c(C(=O)NCC3CC3)ccnc2c1C(N)=O` [Compound 81, N7-(cyclopropylmethyl)-2-(methoxymethyl)pyrazolo[1,5-a]pyrimidine-3,7-dicarboxamide] the value was 50 to 500 nM; for `COCc1nn2c(C(=O)NC3CCc4ccc(F)cc4C3)ccnc2c1C(N)=O` (stereo not shown) [Compound 82, N7-(7-fluorotetralin-2-yl)-2-(methoxymethyl)pyrazolo[1,5-a]pyrimidine-3,7-dicarboxamide], below 50 nM.
Same read-out and setting: for `COCc1nn2c(C(=O)NCc3ccc(F)cc3F)ccnc2c1C(N)=O` [Compound 83, N7-[(2,4-difluorophenyl)methyl]-2-(methoxymethyl)pyrazolo[1,5-a]pyrimidine-3,7-dicarboxamide] the value was below 50 nM; for `COCc1nn2c(C(=O)N[C@H]3CC[C@@H](C)CC3)ccnc2c1C(N)=O` [Compound 84, 2-(methoxymethyl)-N7-(cis-4-methylcyclohexyl)pyrazolo[1,5-a]pyrimidine-3,7-dicarboxamide], 500 to 5000 nM; for `COCc1nn2c(C(=O)NC3Cc4cscc4C3)ccnc2c1C(N)=O` [Compound 85, N7-(5,6-dihydro-4H-cyclopenta[c]thiophen-5-yl)-2-(methoxymethyl)pyrazolo[1,5-a]pyrimidine-3,7-dicarboxamide], below 50 nM.
On to `COCc1nn2c(C(=O)N[C@H]3C[C@H](C)C3)ccnc2c1C(N)=O` [Compound 86, 2-(methoxymethyl)-N7-(trans-3-methylcyclobutyl)pyrazolo[1,5-a]pyrimidine-3,7-dicarboxamide], for which, under setting [1], the IC50 is 50 to 500 nM.
In the case of `COCc1nn2c(C(=O)NC3Cc4ccc(Cl)cc4C3)ccnc2c1C(N)=O` (stereo not shown) [Compound 87, N7-(5-chloroindan-2-yl)-2-(methoxymethyl)pyrazolo[1,5-a]pyrimidine-3,7-dicarboxamide], the IC50 under setting [1] is below 50 nM.
Still for that read-out and setting: for `COCc1nn2c(C(=O)NC3Cc4ccccc43)ccnc2c1C(N)=O` (stereo not shown) [Compound 88, N7-(7-bicyclo[4.2.0]octa-1,3,5-trienyl)-2-(methoxymethyl)pyrazolo[1,5-a]pyrimidine-3,7-dicarboxamide] the value was below 50 nM; for `COCc1nn2c(C(=O)N3CCN(c4ncccc4C(F)(F)F)CC3)ccnc2c1C(N)=O` [Compound 89, 2-(methoxymethyl)-7-[4-[3-(trifluoromethyl)-2-pyridyl]piperazine-1-carbonyl]pyrazolo[1,5-a]pyrimidine-3-carboxamide], 50000 to 100000 nM.
Still for that read-out and setting: for `COCc1nn2c(C(=O)NCC3(N(C)C)CCCCC3)ccnc2c1C(N)=O` [Compound 90, N7-[[1-(dimethylamino)cyclohexyl]methyl]-2-(methoxymethyl)pyrazolo[1,5-a]pyrimidine-3,7-dicarboxamide] the value was 50000 to 100000 nM; for `COCc1nn2c(C(=O)NC3Cc4cccc(F)c4C3)ccnc2c1C(N)=O` (stereo not shown) [Compound 91, N7-(4-fluoroindan-2-yl)-2-(methoxymethyl)pyrazolo[1,5-a]pyrimidine-3,7-dicarboxamide], below 50 nM.
Same read-out and setting: then `COCc1nn2c(C(=O)NC3Cc4cc(F)cc(F)c4C3)ccnc2c1C(N)=O` (stereo not shown) [Compound 92, N7-(4,6-difluoroindan-2-yl)-2-(methoxymethyl)pyrazolo[1,5-a]pyrimidine-3,7-dicarboxamide], with below 50 nM; and `COCc1nn2c(C(=O)NC3CNc4ccccc4C3)ccnc2c1C(N)=O` (stereo not shown) [Compound 93, 2-(methoxymethyl)-N7-(1,2,3,4-tetrahydroquinolin-3-yl)pyrazolo[1,5-a]pyrimidine-3,7-dicarboxamide], with below 50 nM.
In the case of `COCc1nn2c(C(=O)N[C@H]3C[C@](C)(F)C3)ccnc2c1C(N)=O` [Compound 94, N7-(trans-3-fluoro-3-methyl-cyclobutyl)-2-(methoxymethyl)pyrazolo[1,5-a]pyrimidine-3,7-dicarboxamide], the half-maximal inhibitory concentration (IC50) (hGPR68 IC50, HEK293T cells transiently expressing hGPR68, antagonism of pH 5.5 stimulated cAMP) is 50 to 500 nM.
On to `COCc1nn2c(C(=O)N3Cc4ccccc4C3)ccnc2c1C(N)=O` [Compound 95, 7-(isoindoline-2-carbonyl)-2-(methoxymethyl)pyrazolo[1,5-a]pyrimidine-3-carboxamide], for which the IC50 under setting [1] lay in the range of 500 to 5000 nM.
`CCC(CNC(=O)c1ccnc2c(C(N)=O)cnn12)Oc1cccc(C)c1` (stereo not shown) [Compound 96, N7-[2-(3-methylphenoxy)butyl]pyrazolo[1,5-a]pyrimidine-3,7-dicarboxamide]: the IC50 under setting [1] lay in the range of 5000 to 50000 nM.
In the case of `Cc1ccc(-c2ccncc2)cc1NC(=O)c1ccnc2c(C(N)=O)cnn12` [Compound 97, N7-[2-methyl-5-(pyridin-4-yl)phenyl]pyrazolo[1,5-a]pyrimidine-3,7-dicarboxamide], the IC50 under setting [1] was 500 to 5000 nM.
In the case of `COc1ccc2[nH]c(C(C)NC(=O)c3ccnc4c(C(N)=O)cnn34)nc2c1` (stereo not shown) [Compound 98, N7-[1-(5-methoxy-1H-1,3-benzodiazol-2-yl)ethyl]pyrazolo[1,5-a]pyrimidine-3,7-dicarboxamide], the IC50 under setting [1] is 5000 to 50000 nM.
The same measure, in the same setting: for `CC(COc1ccc(C(C)(C)C)cc1)NC(=O)c1ccnc2c(C(N)=O)cnn12` (stereo not shown) [Compound 99, N7-[1-(4-tert-butylphenoxy)propan-2-yl]pyrazolo[1,5-a]pyrimidine-3,7-dicarboxamide] the value was 5000 to 50000 nM; for `NC(=O)c1cnn2c(C(=O)NCCC(F)(F)F)ccnc12` [Compound 100, N7-(3,3,3-trifluoropropyl)pyrazolo[1,5-a]pyrimidine-3,7-dicarboxamide], 5000 to 50000 nM.
Regarding `NC(=O)c1cnn2c(C(=O)NCC3CCC(F)(F)CC3)ccnc12` [Compound 101, N7-[(4,4-difluorocyclohexyl)methyl]pyrazolo[1,5-a]pyrimidine-3,7-dicarboxamide], under setting [1], the IC50 was 500 to 5000 nM.
The same measure, in the same setting: for `NC(=O)c1cnn2c(C(=O)NC3CC(F)(F)C3)ccnc12` [Compound 102, N7-(3,3-difluorocyclobutyl)pyrazolo[1,5-a]pyrimidine-3,7-dicarboxamide] the value was 500 to 5000 nM; for `NC(=O)c1cnn2c(C(=O)NC3CCC(F)(F)CC3)ccnc12` [Compound 103, N7-(4,4-difluorocyclohexyl)pyrazolo[1,5-a]pyrimidine-3,7-dicarboxamide], 500 to 5000 nM.
Take `COCc1nc2c(C(=O)NC3Cc4cccnc4C3)ccnn2c1C(N)=O` (stereo not shown) [Compound 104, N8-(6,7-dihydro-5H-cyclopenta[b]pyridin-6-yl)-2-(methoxymethyl)imidazo[1,2-b]pyridazine-3,8-dicarboxamide]: the IC50 under setting [1] was 50 to 500 nM.

These data come from patent US20260308159A1, “BICYCLIC HETEROARYLAMIDES HAVING GPR68 MODULATING ACTIVITY” (RECURSION PHARMACEUTICALS, INC., priority 2023, published 2026).
